Series [1] is described as follows: Fluorescence measurements with MC540, TMA-DPH and DPH probes in liposome membranes. Particulars: concentration 1–10 μM. On the procedure:
(§1) Small unilamellar liposomes (SUV) consisted of phosphatidylcholine (egg-PC) were prepared in accordance with the methodology described by Gabrielska and Oszmiański. The lipids were dissolved in chloroform (100 mg/mL), evaporated to dryness under nitrogen and under vacuum for another 60 min. Subsequently, a phosphate buffer […] of pH 7.4 was added and liposomes were formed by mechanical shaking. Then SUVs were formed using a 20 kHz sonicator for 15 min. During sonication the samples were thermostated at 0–2 °C. In the study, PC liposomes at a concentration of 0.1 mg/mL in phosphate buffer (pH 7.4) were used. Liposomes prepared according to the presented-above procedure were used to determine the antioxidative activity and in fluorometric studies.
The Q 7-MeGlu and Q effect on the hydrophilic and hydrophobic properties of the membrane was determined using the fluorometric method applying the MC540, TMA-DPH and DPH fluorescence probes according to the procedure described by Strugała et al.. Merocyanine 540 (MC540) is a probe that partitions into the membrane and orients parallel to the glycerol backbones of the lipids. The fluorescence intensity of MC540 emission was determined and expressed as relative intensity change in relation to control as a function of studied compounds concentration. The TMA-DPH and DPH probes are supposed to distribute in the hydrophobic part of the bilayer. All the fluorescent probes were used at 1 μM concentration. The DPH and TMA-DPH stock solutions were prepared in DMF, while the probe MC540 was dissolved in methanol. Liposomes were prepared according to procedure described in Section 3.6.1. […] Fluorescence anisotropy for TMA-DPH and DPH was calculated using the following equation [64]:(5) A=I∥−GI⊥/I∥+2GI⊥ where I∥ and I⊥ are fluorescence intensities observed in directions parallel and perpendicular, respectively to the polarization plane of the exciting wave. […]
The fluorescence experiment was conducted using a Cary Eclipse fluorimeter (Varian, Palo Alto, CA, USA). […]

The nature of series [2]: Liposome oxidation assay (AAPH-induced oxidation, DPH-PA probe). The format is biochemical. The following applies: for IC50: 30 min oxidation, 37 °C, pH 7.4, read-out: IC50 AAPH PC (inhibition of AAPH induced oxidation of phosphatidylcholine liposomes). On the procedure:
as §1
Antioxidant activities of Q 7-MeGlu and Q were determined using a fluorometric method described earlier by Strugała et al. with minor modifications. The studies were carried out on PC liposomes, which contained the fluorescent probe DPH-PA. Use was made of the relationship between DPH-PA fluorescence intensity and concentration of free radicals. The probe’s fluorescence decreased with its rising oxidation caused by free radicals, supplied by AAPH. Molecules of this compound underwent thermal decomposition into two free radicals each. The value of relative intensity of DPH-PA fluorescence was adopted as a measure of the degree of lipid membrane oxidation. It was calculated as a ratio of fluorescence intensity after 30 min of oxidation in the presence of antioxidants to the initial value of the intensity. The studied polyphenolic compounds scavenged free radicals and thus caused a lower rate of DPH-PA fluorescence decrease. PC liposomes at a concentration of 0.1 mg/mL in phosphate buffer (pH 7.4) were used, incubated for 0.5 h in darkness with addition of DPH-PA probe at a concentration of 1 µM (stock solutions were prepared in DMF). […] The wavelengths of excitation and emission for the probe were as follows: λex = 355 nm, λem = 430 nm. Oxidation was initiated just before measurement, using AAPH at a concentration of […] (dissolved in water) at 37 °C (control sample), or in the presence of test substances (Q 7-MeGlu and Q). The concentrations of studied compounds fluctuated in the range 3–7 µM for Q 7-MeGlu and 2–5 µM for Q. The measurements were conducted with a Cary Eclipse fluorimeter.

Series [3] is described as follows: Solubility in water (literature values). In kind it is physicochemical. Particulars: from cited values.
For series [4] the following is noted: ref [12]; cited from earlier work.

Converted amounts (≈) assume the structure as drawn.

The term IC50 denotes the concentration at which inhibition is half-maximal. Take `CO[C@H]1[C@H](O)[C@@H](O)[C@H](Oc2cc(O)c3c(=O)c(O)c(-c4ccc(O)c(O)c4)oc3c2)O[C@@H]1CO` [Q 7-MeGlu, quercetin 7-O-β-D-(4″-O-methyl)glucopyranoside]: the “relative changes in anisotropy in the probe TMA-DPH” value in series [1] was 5–10%. For the same compound, in series [2], the IC50 worked out at 5.47 ± 0.47 µM. For the same compound, in series [2] (from IC50 values), the “antioxidative activity, fold higher than L-(+)-ascorbic acid” value is “ca. 24 fold” and the “antioxidative activity, fold lower than quercetin” value was “ca. 1.2 fold”.
Take `O=c1c(O)c(-c2ccc(O)c(O)c2)oc2cc(O)cc(O)c12` [Quercetin, 3,3′,4′,5,7-pentahydroxyflavone]: in series [1], the “reduction in intensity of the MC540 probe's fluorescence” value is 29–56% and the “relative changes in anisotropy in the probe TMA-DPH” value is listed as 16–37%. In addition, the 50% inhibitory concentration (IC50) in series [2] was 4.49 ± 0.24 µM. Further, the “solubility, fold lower than rutin” value in series [3] was “more than 240 fold”. Further, the solubility in water in series [4] is 0.512 µg/mL (≈ 1.69 µM).

The record behind these values is PMC6151435, “Bioactivity In Vitro of Quercetin Glycoside Obtained in Beauveria bassiana Culture and Its Interaction with Liposome Membranes” (Molecules : A Journal of Synthetic Chemistry and Natural …, 2017).
